# Experimental data: patent US8895585B2, “Nicotinamide derivative or salt thereof” (FUJIFILM Corporation, priority 2010, dated 2014)
# Target: T1, glutathione S-transferase (GST)-fused full-length human Syk protein (Homo sapiens, UniProt P43405)
# T1 construct: (GST)-fused full-length human Syk protein; GST (glutathione S-transferase); purchased Carna Biosciences
# Test: Syk enzyme assay
# Format: biochemical
# Settings: Syk enzyme assay, Test Example 1; read-out: IC50 of Syk-inhibitory activity
# Procedure, shortened: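 IC50 values come from a time-resolved FRET readout (615 and 665 nm) of substrate phosphorylation, measured after an EDTA stop and 1 h antibody binding. The kinase reaction ran 40 min at room temperature with 27 μM ATP and 0.4 μM biotin-peptide, following a 15 min compound preincubation with baculovirus-made GST-full-length human Syk.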
row,SMILES,IC50 [nM]
1,"NC(=O)c1cc(F)c(N[C@@H]2CCCC[C@@H]2N)nc1Nc1cnc(-n2cccn2)c(-n2cccn2)c1 [Example 006-448, 6-(((1R,2S)-2-aminocyclohexyl)amino)-2-((5,6-di(1H-pyrazol-1-yl)pyridin-3-yl)amino)-5-fluoronicotinamide]",50 to 100
2,"NC(=O)c1cc(F)c(N[C@@H]2CCCC[C@@H]2N)nc1Nc1cnc(-n2cccn2)c(-n2ccnn2)c1 [Example 006-450, 2-((6-(1H-pyrazol-1-yl)-5-(1H-1,2,3-triazol-1-yl)pyridin-3-yl)amino)-6-(((1R,2S)-2-aminocyclohexyl)amino)-5-fluoronicotinamide]",100 to 1000
3,"CCn1nc(C(C)C)c2cc(Nc3nc(N[C@@H]4CCCC[C@@H]4N)c(F)cc3C(N)=O)ccc21 [Example 006-462, 6-(((1R,2S)-2-aminocyclohexyl)amino)-2-((1-ethyl-3-isopropyl-1H-indazol-5-yl)amino)-5-fluoronicotinamide]",< 10
4,"COCCn1nc(C(C)C)c2cc(Nc3nc(N[C@@H]4CCCC[C@@H]4N)c(F)cc3C(N)=O)ccc21 [Example 006-463, 6-(((1R,2S)-2-aminocyclohexyl)amino)-5-fluoro-2-((3-isopropyl-1-(2-methoxyethyl)-1H-indazol-5-yl)amino)nicotinamide]",< 10
5,"NC(=O)c1cc(F)c(N[C@@H]2CCCC[C@@H]2N)nc1Nc1ccc(N2CC3(COC3)C2)nc1 [Example 006-467, 2-((6-(2-oxa-6-azaspiro[3.3]heptane-6-yl)pyridin-3-yl)amino)-6-(((1R,2S)-2-aminocyclohexyl)amino)-5-fluoronicotinamide]",10 to 50
6,"NC(=O)c1cc(F)c(N[C@@H]2CCCC[C@@H]2N)nc1Nc1ccc2c(F)nn(C3CC3)c2c1 [Example 006-476, 6-(((1R,2S)-2-aminocyclohexyl)amino)-2-((1-cyclopropyl-3-fluoro-1H-indazol-6-yl)amino)-5-fluoronicotinamide]",< 10
7,"CCCc1nn(C2CC2)c2ccc(Nc3nc(N[C@@H]4CCCC[C@@H]4N)c(F)cc3C(N)=O)cc12 [Example 006-479, 6-(((1R,2S)-2-aminocyclohexyl)amino)-2-((1-cyclopropyl-3-propyl-1H-indazol-5-yl)amino)-5-fluoronicotinamide]",< 10
8,"C[C@H](N)[C@@H](CC1CC1)Nc1nc(Nc2ccc3c(F)nn(C4CC4)c3c2)c(C(N)=O)cc1F [Example 006-481, 6-(((2R,3S)-3-amino-1-cyclopropylbutan-2-yl)amino)-2-((1-cyclopropyl-3-fluoro-1H-indazol-6-yl)amino)-5-fluoronicotinamide]",100 to 1000
9,"CCCc1nn(C2CC2)c2ccc(Nc3nc(N[C@H](CC4CC4)[C@H](C)N)c(F)cc3C(N)=O)cc12 [Example 006-482, 6-(((2R,3S)-3-amino-1-cyclopropylbutan-2-yl)amino)-2-((1-cyclopropyl-3-propyl-1H-indazol-5-yl)amino)-5-fluoronicotinamide]",< 10
10,"COCCn1nc(F)c2c(Nc3nc(N[C@H](CC4CC4)[C@H](C)N)c(F)cc3C(N)=O)cccc21 [Example 006-490, 6-(((2R,3S)-3-amino-1-cyclopropylbutan-2-yl)amino)-5-fluoro-2-((3-fluoro-1-(2-methoxyethyl)-1H-indazol-4-yl)amino)nicotinamide]",50 to 100
11,"C[C@H](N)[C@@H](CC1CC1)Nc1nc(Nc2cccc3c2c(F)nn3CCF)c(C(N)=O)cc1F [Example 006-491, 6-(((2R,3S)-3-amino-1-cyclopropylbutan-2-yl)amino)-5-fluoro-2-((3-fluoro-1-(2-fluoroethyl)-1H-indazol-4-yl)amino)nicotinamide]",10 to 50
12,"C[C@H](N)[C@@H](CC1CC1)Nc1nc(Nc2cccc3c2c(F)nn3CC(F)F)c(C(N)=O)cc1F [Example 006-492, 6-(((2R,3S)-3-amino-1-cyclopropylbutan-2-yl)amino)-2-((1-(2,2-difluoroethyl)-3-fluoro-1H-indazol-4-yl)amino)-5-fluoronicotinamide]",10 to 50
13,"NC(=O)c1cc(F)c(N[C@@H]2CCCC[C@@H]2N)nc1Nc1cnc(O)c(-n2nccn2)c1 [Example 006-504, 6-(((1R,2S)-2-aminocyclohexyl)amino)-5-fluoro-2-((6-hydroxy-5-(2H-1,2,3-triazol-2-yl)pyridin-3-yl)amino)nicotinamide]",50 to 100
14,"C[C@H](N)[C@H](Nc1nc(Nc2cnc3c(c2)OCO3)c(C(N)=O)cc1F)C1CC1 [Example 006-514, 2-([1,3]dioxolo[4,5-b]pyridin-6-ylamino)-6-(((1R,2S)-2-amino-1-cyclopropylpropyl)amino)-5-fluoronicotinamide]",50 to 100
15,"COCCOc1ncc(Nc2nc(N[C@@H]3CCCC[C@@H]3N)c(F)cc2C(N)=O)cc1-n1ccnn1 [Example 006-518, 6-(((1R,2S)-2-aminocyclohexyl)amino)-5-fluoro-2-((6-(2-methoxyethoxy)-5-(1H-1,2,3-triazol-1-yl)pyridin-3-yl)amino)nicotinamide]",50 to 100
16,"NC(=O)c1cc(F)c(N[C@@H]2CCCC[C@@H]2N)nc1Nc1cnc(N2CCOCC2)c(-n2cccn2)c1 [Example 006-527, 6-(((1R,2S)-2-aminocyclohexyl)amino)-5-fluoro-2-((6-morpholino-5-(1H-pyrazol-1-yl)pyridin-3-yl)amino)nicotinamide]",50 to 100
17,"NC(=O)c1cc(F)c(N[C@@H]2CCCC[C@@H]2N)nc1Nc1cnc(N2CCOCC2)c(C2CC2)c1 [Example 006-528, 6-(((1R,2S)-2-aminocyclohexyl)amino)-2-((5-cyclopropyl-6-morpholinopyridin-3-yl)amino)-5-fluoronicotinamide]",10 to 50
18,"COc1cc(Nc2nc(NC3CN(C(=O)OCc4ccccc4)CCC3N)c(F)cc2C(N)=O)ccn1 [Example 006-529, (3R,4S)-benzyl 4-amino-3-((5-carbamoyl-3-fluoro-6-((2-methoxypyridin-4-yl)amino)pyridin-2-yl)amino)piperidine-1-carboxylate) and (3S,4R)-benzyl-4-amino-3-((5-carbamoyl-3-fluoro-6-((2-methoxypyridin-4-yl)amino)pyridin-2-yl)amino)piperidine-1-carboxylate(=1:1)]",100 to 1000
19,"COc1cc(Nc2nc(NC3CCN(C(=O)OCc4ccccc4)CC3N)c(F)cc2C(N)=O)ccn1 [Example 006-530, (3S,4R)-benzyl 3-amino-4-((5-carbamoyl-3-fluoro-6-((2-methoxypyridin-4-yl)amino)pyridin-2-yl)amino)piperidine-1-carboylate and (3R,4S)-benzyl 3-amino-4-((5-carbamoyl-3-fluoro-6-((2-methoxypyridin-4-yl)amino)pyridin-2-yl)amino)piperidine-1-carboxylate(=1:1)]",< 10
20,"COc1cc(Nc2nc(N[C@@H]3COCC[C@@H]3N)c(F)cc2C(N)=O)ccn1 [Example 006-532, 6-(((3S,4S)-4-aminotrahydro-2H-pyran-3-yl)amino)-5-fluoro-2-((2-methoxypyridin-4-yl)amino)nicotinamide]",100 to 1000
21,"NC(=O)c1cc(F)c(N[C@@H]2CCCC[C@@H]2N)nc1Nc1cnc(N2CCOCC2)c(-n2nccn2)c1 [Example 006-533, 6-(((1R,2S)-2-aminocyclohexyl)amino)-5-fluoro-2-((6-morpholino-5-(2H-1,2,3-triazol-2-yl)pyridin-3-yl)amino)nicotinamide]",10 to 50
